According to patent publication US20250129021A1, “SMALL MOLECULE PROTEIN SYNTHESIS MODULATORS” (Interdict Bio, Inc., priority 2023, published 2025):
Like-named read-outs stand apart in the source and are kept apart here.

What was measured:
HEPG2 = assay: Cell viability (CellTiter-Fluor), HEPG2; type: cell-based; conditions: Homo sapiens, 24-72 hrs
Protocol: (§1) Count and dispense 2,000-10,000 cells per well (100 μL volume) in black 96-well tissue culture microplate and let cells adhere overnight. Add compound dissolved in 100% DMSO to each well as needed and incubate cells in standard culture conditions for 24-72 hrs. Final DMSO concentration in each well should be 0.1-0.5%. At the desired time point, gently aspirate compound containing media and replace with PBS to wash. Repeat wash step for 2 total washes. Remove PBS and add 100 μL CellTiter-Fluor reagent (Promega) reagent to each well. Seal plate and incubate 1 hr at room temperature with orbital shaking. Analyze fluorescence using plate reader to quantify viable cells compared with vehicle (DMSO) control.

LS411N = assay: Cell viability (CellTiter-Fluor), LS411N; type: cell-based; conditions: Homo sapiens, LS-411N, 24-72 hrs
Protocol: as §1

HCC38 = assay: Cell viability (CellTiter-Fluor), HCC38; type: cell-based; conditions: Homo sapiens, 24-72 hrs
Protocol: as §1

KLE = assay: Cell viability (CellTiter-Fluor), KLE; type: cell-based; conditions: Homo sapiens, 24-72 hrs
Protocol: as §1

MCL-1 = assay: In vitro transcription-translation (IVTT) assay, MCL-1 reporter; type: biochemical; conditions: HeLa S3 lysate, sfGFP/mCherry ratio
Method in brief: (§2)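 Reporter: mCherry, P2A, then 3×FLAG-target peptide-sfGFP fusion, IRES-initiated; HeLa S3 lysate IVTT; cpd dilutions 30 μM−0.1 μM half-log in 100% DMSO (dilution-plate conc); DNA added last; 2 h, 30° C; PBS quench.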

NCI-H1915 = assay: Cell viability (CellTiter-Fluor), NCI-H1915; type: cell-based; conditions: 24-72 hrs
Protocol: as §1

KRAS G12D = assay: In vitro transcription-translation (IVTT) assay, KRAS G12D reporter; type: biochemical; conditions: HeLa S3 lysate, sfGFP/mCherry ratio, 2 hrs at 30° C.
Method in brief: as §2

T47D = assay: Cell viability (CellTiter-Fluor), T47D; type: cell-based; conditions: Homo sapiens, 24-72 hrs
Protocol: as §1

BCL-2 = assay: In vitro transcription-translation (IVTT) assay, BCL-2 reporter; type: biochemical; conditions: HeLa S3 lysate, sfGFP/mCherry ratio, 2 hrs at 30° C.
Method in brief: as §2

CCND1 = assay: In vitro transcription-translation (IVTT) assay, CCND1 reporter; type: biochemical; conditions: HeLa S3 lysate, sfGFP/mCherry ratio
Method in brief: as §2

MYC = assay: In vitro transcription-translation (IVTT) assay, MYC reporter; type: biochemical; conditions: HeLa S3 lysate, 2 hrs at 30° C.
Method in brief: as §2

MCF7 = assay: Cell viability (CellTiter-Fluor), MCF7; type: cell-based; conditions: Homo sapiens, 24-72 hrs
Protocol: as §1

ALK = assay: In vitro transcription-translation (IVTT) assay, ALK reporter; type: biochemical; conditions: HeLa S3 lysate, sfGFP/mCherry ratio, 2 hrs at 30° C.
Method in brief: as §2

HEK 293T = assay: Cell viability (CellTiter-Fluor), HEK 293T; type: cell-based; conditions: Homo sapiens, 24-72 hrs
Protocol: as §1

MS751 = assay: Cell viability (CellTiter-Fluor), MS751; type: cell-based; conditions: 24-72 hrs
Protocol: as §1

KATO-III = assay: Cell viability (CellTiter-Fluor), KATO-III; type: cell-based; conditions: Homo sapiens, 24-72 hrs
Protocol: as §1

HPAF-II = assay: Cell viability (CellTiter-Fluor), HPAF-II; type: cell-based; conditions: Homo sapiens, 24-72 hrs
Protocol: as §1

JAK1 = assay: In vitro transcription-translation (IVTT) assay, JAK1 reporter; type: biochemical; conditions: HeLa S3 lysate, sfGFP/mCherry ratio
Protocol: (§3) In vitro transcription-translation assay setup: Each assay includes a master mix containing lysate and shared components, a 96-well plate containing compound titrations for testing, a 96-well DNA plate with reporter constructs to be tested, 96-well skirted PCR plates, and 96-well flat-bottom, black, fluorescent assay plates. Reaction materials setup: (A) Master mix—15 mL conical tube (3 mL of HeLa S3 Lysate described above; 0.6 mL of ThermoFisher Accessory Proteins (#88882); 1.2 ml of ThermoFisher Reaction Mix (#88882); 0.54 mL of nuclease-free Water); (B) 96-Well Master Mix+Compound Plate (Half-log dilutions (30 μM−0.1 μM) of 4 compounds of interest are prepared in 100% DMSO); 96-Well DNA Plate (Five DNA constructs are plated into single columns within the plate. Row 1 of the column contains nuclease free H2O, all other wells contain 110 ng/μL plasmid DNA). Reactions are started by mixing 155 μL of master mix and 3.5 μL of compound serial dilutions, then 9.1 μL of master mix+compound mixture is aliquoted across 5 96-well plates. Reactions begin with final addition of 2 μL of DNA for a 11.1 μL reaction volume in each well. The entire plate is sealed, and incubated for 2 hrs at 30° C. After 2 hrs, quench the assay using 45 μL of PBS, and transfer 50 μL to a flat-bottom black microplate Quantify the sfGFP and mCherry signals from each well on each plate, taking 3 reads of each plate, and perform data analysis below.
(§4) In vitro transcription-translation assay data analysis: Each plate is read three times in channels for both sfGFP and mCherry signals. The average signal across these 3 reads is then calculated for further analysis. Control wells containing no DNA reporter are subtracted from reporter wells in the same column to remove auto-fluorescence of the lysate. Then, the ratio of sfGFP/mCherry is calculated per well, and these ratios are averaged across the triplicate experiments on the same plate. Finally, the ratio of each titration concentration is normalized to the no drug control to create the normalized stalling metric. The error on this measurement is determined by propagating error through the averaging and normalization steps. Values are plotted and fit for IC50 determination for each test sequence and titration of compound.

CCNTB1 = assay: In vitro transcription-translation (IVTT) assay, CCNTB1 reporter; type: biochemical; conditions: HeLa S3 lysate, sfGFP/mCherry ratio
Method in brief: (§5)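 Cell-free HeLa S3 lysate reactions expressing sfGFP/mCherry reporter constructs ran 2 h at 30 °C with compound from half-log DMSO series (30 μM–0.1 μM as prepared), then were quenched with PBS. No-DNA background was subtracted, and the sfGFP/mCherry ratio was normalized to the no-drug control and fit for IC50.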

NFKB1 = assay: In vitro transcription-translation (IVTT) assay, NFKB1 reporter; type: biochemical; conditions: HeLa S3 lysate, sfGFP/mCherry ratio
Method in brief: as §5

cGAS = assay: In vitro transcription-translation (IVTT) assay, cGAS reporter; type: biochemical; conditions: HeLa S3 lysate, sfGFP/mCherry ratio
Protocol: as §3, §4

STING = assay: In vitro transcription-translation (IVTT) assay, STING reporter; type: biochemical; conditions: HeLa S3 lysate, sfGFP/mCherry ratio
Protocol: as §3, §4

[1] = IVTT assay, read-out: MCL1 IC50
[2] = IVTT assay, MYC reporter, normalized sfGFP/mCherry ratio, half-log dilutions 30 μM-0.1 μM

Compound | IC50 (LS411N) [µM] | IC50 (HCC38) [µM] | IC50 (KLE) [µM] | IC50 (MCL-1; 2 hrs at 30° C.) [µM] | IC50 (NCI-H1915) [µM] | IC50 (T47D) [µM] | IC50 (MYC; sfGFP/mCherry ratio) [µM] | IC50 (MCF7) [µM] | IC50 (HEK 293T) [µM] | IC50 (MS751) [µM] | IC50 (KATO-III) [µM] | IC50 (HPAF-II) [µM] | IC50 (JAK1) [µM] | IC50 (MCL-1; [1]) [µM] | IC50 (CCNTB1) [µM] | IC50 (NFKB1) [µM] | IC50 (cGAS) [µM] | IC50 (CCND1; IVTT assay) [µM] | IC50 (MYC; [2]) [µM] | IC50 (STING) [µM] | also measured
COc1ccc(C[C@H]2NC[C@H](O)[C@H]2OC(=O)NCc2ccccc2)cc1 [V187190, (2R,3S,4S)-4-hydroxy-2-[(4-methoxyphenyl)methyl]pyrrolidin-3-yl N-benzylcarbamate; trifluoroacetic acid] | < 0.25 | 0.25 to 1 | < 0.25 | < 10 | < 0.25 | < 0.25 | < 10 | < 0.25 | < 0.25 | < 0.25 | < 0.25 | 0.25 to 1 | – | – | – | – | – | – | – | – | IC50 (HEPG2): < 0.25 µM; IC50 (KRAS G12D): < 10 µM; IC50 (BCL-2): < 10 µM; IC50 (CCND1; 2 hrs at 30° C.): < 10 µM; IC50 (ALK): < 10 µM
COc1ccc(C[C@H]2NC[C@H](O)[C@H]2OC(=O)NCc2ccncc2)cc1 [V187987, (2R,3S,4S)-4-hydroxy-2-[(4-methoxyphenyl)methyl]pyrrolidin-3-yl N-(pyridin-4-ylmethyl)carbamate] | < 0.25 | 0.25 to 1 | 0.25 to 1 | < 10 | < 0.25 | < 0.25 | < 10 | < 0.25 | < 0.25 | 0.25 to 1 | 0.25 to 1 | 0.25 to 1 | – | – | – | – | – | – | – | – | IC50 (HEPG2): 1 to 4 µM; IC50 (BCL-2): < 10 µM; IC50 (CCND1; 2 hrs at 30° C.): < 10 µM
O=C(NCc1ccnc(N2CCC2)c1)O[C@@H]1[C@@H](O)CN[C@@H]1Cc1ccc(-c2cnco2)cc1 [V192160, (2R,3S,4S)-4-hydroxy-2-(4-(oxazol-5-yl)benzyl)pyrrolidin-3-yl ((2-(azetidin-1-yl)pyridin-4-yl)methyl)carbamate] | – | – | – | – | – | – | – | – | – | – | – | – | < 10 | < 10 | < 10 | < 10 | < 10 | < 10 | < 10 | < 10 | –
O=C(NCCOC(F)(F)F)O[C@@H]1[C@@H](O)CN[C@@H]1Cc1ccc(-c2cnco2)cc1 [V192265, (2R,3S,4S)-4-hydroxy-2-{[4-(1,3-oxazol-5-yl)phenyl]methyl}pyrrolidin-3-yl N-[2-(trifluoromethoxy)ethyl]carbamate] | – | – | – | – | – | – | – | – | – | – | – | – | < 10 | < 10 | < 10 | < 10 | < 10 | < 10 | < 10 | < 10 | –
COc1ccc(C[C@H]2NC[C@H](O)[C@H]2OC(=O)NCc2c[nH]nn2)cc1 [V187536, (2R,3S,4S)-4-hydroxy-2-[(4-methoxyphenyl)methyl]pyrrolidin-3-yl N-(1H-1,2,3-triazol-4-ylmethyl) carbamate; trifluoroacetic acid] | 1 to 4 | 1 to 4 | 1 to 4 | < 10 | 1 to 4 | 1 to 4 | < 10 | 1 to 4 | 0.25 to 1 | 0.25 to 1 | 1 to 4 | 1 to 4 | – | – | – | – | – | – | – | – | IC50 (HEPG2): 1 to 4 µM; IC50 (KRAS G12D): < 10 µM; IC50 (CCND1; 2 hrs at 30° C.): < 10 µM; IC50 (ALK): < 10 µM
O=C(NCCC1CCNCC1)O[C@@H]1[C@@H](O)CN[C@@H]1Cc1ccc(-c2cnco2)cc1 [V192049, (2R,3S,4S)-4-hydroxy-2-{[4-(1,3-oxazol-5-yl)phenyl]methyl}pyrrolidin-3-yl N-[2-(piperidin-4-yl)ethyl]carbamate] | – | – | – | – | – | – | – | – | – | – | – | – | < 10 | < 10 | < 10 | < 10 | < 10 | < 10 | < 10 | < 10 | –
COc1ccc(C[C@H]2NC[C@H](O)[C@H]2OC(=O)NCCc2cn[nH]c2)cc1 [V187509, (2R,3S,4S)-4-hydroxy-2-[(4-methoxyphenyl)methyl]pyrrolidin-3-yl N-[2-(1H-pyrazol-4-yl)ethyl]carbamate] | 0.25 to 1 | 0.25 to 1 | 0.25 to 1 | < 10 | 0.25 to 1 | 0.25 to 1 | < 10 | 0.25 to 1 | < 0.25 | < 0.25 | 0.25 to 1 | 0.25 to 1 | – | – | – | – | – | – | – | – | IC50 (HEPG2): 1 to 4 µM; IC50 (KRAS G12D): < 10 µM; IC50 (BCL-2): < 10 µM; IC50 (CCND1; 2 hrs at 30° C.): < 10 µM
O=C(NCC[C@@H]1CCCN1)O[C@@H]1[C@@H](O)CN[C@@H]1Cc1ccc(-c2cnco2)cc1 [V192047, (2R,3S,4S)-4-hydroxy-2-{[4-(1,3-oxazol-5-yl)phenyl]methyl}pyrrolidin-3-yl N-{2-[(2S)-pyrrolidin-2-yl]ethyl}carbamate] | – | – | – | – | – | – | – | – | – | – | – | – | < 10 | < 10 | < 10 | < 10 | < 10 | < 10 | < 10 | < 10 | –
COc1ccc(C[C@H]2NC[C@H](O)[C@H]2OC(=O)NCC2CC2)cc1 [V187189, (2R,3S,4S)-4-hydroxy-2-[(4-methoxyphenyl)methyl]pyrrolidin-3-yl N-(cyclopropylmethyl)carbamate; trifluoroacetic acid] | < 0.25 | 0.25 to 1 | 0.25 to 1 | < 10 | 0.25 to 1 | 0.25 to 1 | < 10 | 0.25 to 1 | < 0.25 | 0.25 to 1 | 0.25 to 1 | 0.25 to 1 | – | – | – | – | – | – | – | – | IC50 (KRAS G12D): < 10 µM; IC50 (ALK): < 10 µM
O=C(NCc1cccc(C2CNC2)c1)O[C@@H]1[C@@H](O)CN[C@@H]1Cc1ccc(-c2cnco2)cc1 [V192154, (2R,3S,4S)-4-hydroxy-2-{[4-(1,3-oxazol-5-yl)phenyl]methyl}pyrrolidin-3-yl N-{[3-(azetidin-3-yl)phenyl]methyl}carbamate] | – | – | – | – | – | – | – | – | – | – | – | – | < 10 | < 10 | < 10 | < 10 | < 10 | < 10 | < 10 | < 10 | –
